Laboratory results as given in patent US8937091B2 (Japan Science and Technology Agency, priority 2009, dated 2015).

Columns and labels:
[1] = tested on: IICR (IP3 induced calcium release) in CHO cells; assay: Assay of IICR (IP3 induced calcium release)-inhibiting action; format: cell-based, Chinese hamster; details: Cricetulus griseus, CHO, CHO cells, 10 μM ATP, read-out: IICR level (percentage of inhibition); for inhibition at 10 µM: test compound 10 μmol; for inhibition at 30 µM: test compound 30 μmol; for inhibition at 100 µM: test compound 100 μmol
Protocol: The extracellular fluid (i.e., medium) of cultured CHO cells was replaced by BSS containing calcium. One minute later, a test compound was added. Two minutes later, 10 μM ATP was added. The IICR-inhibiting action levels at different compound concentrations after the addition of ATP were determined as the percentage of inhibition (%) by evaluating the influence of the compound on the degree of increase in the intracellular calcium concentration.
(§1) Hereafter, the numerals in parentheses written after the TG level, the SOCE level, and the IICR level correspond to the test compound concentrations. The number following the name of each title compound used in the Examples below represents a compound ID number designated arbitrarily by the present inventors.

[2] = tested on: SOCE (store operated calcium entry) in CHO cells; assay: Assay of SOCE (store operated calcium entry)-inhibiting action; format: cell-based, Chinese hamster; details: Cricetulus griseus, CHO, CHO cells, thapsigargin, read-out: SOCE level (percentage of inhibition); for inhibition at 10 µM: test compound 10 μmol; for inhibition at 30 µM: test compound 30 μmol; for inhibition at 100 µM: test compound 100 μmol
Protocol: The extracellular fluid (i.e., medium) of cultured Chinese hamster ovary (CHO) cells was replaced by BSS containing no calcium. One minute later, a test compound was added. Two minutes later, 1 μM thapsigargin was added to cause depletion of the intracellular calcium store. Nine minutes later, calcium chloride (final concentration: 2 mM) was added to the extracellular fluid. The SOCE-inhibiting action levels at different compound concentrations after the addition of calcium chloride were determined as the percentage of inhibition (%) by evaluating the influence of the compound on the degree of increase in the intracellular calcium concentration.
as §1

Molecule `CC(C)N(CCC(=O)c1ccc2c(Cl)cccc2c1)Cc1ccccc1` [Example 84, 2-(N-isopropylbenzyl)aminoethyl-5-chloro-2-naphthylketone] has an inhibition at 10 µM [1] of 90%, an inhibition at 30 µM [1] of 100% and an inhibition at 100 µM [1] of 100%. It also gave an inhibition at 10 µM [2] of 20%, an inhibition at 30 µM [2] of 30% and an inhibition at 100 µM [2] of 70%.
`CC(C)N(CCC(=O)c1ccc(Oc2ccccc2)cc1)Cc1ccccc1` [Example 85, 2-(N-isopropylbenzyl)aminoethyl-4-phenoxyphenylketone] gave an inhibition at 10 µM [1] of 50%, an inhibition at 30 µM [1] of 50% and an inhibition at 100 µM [1] of 95%. It also gave an inhibition at 10 µM [2] of 10%, an inhibition at 30 µM [2] of 20% and an inhibition at 100 µM [2] of 30%.
`CN(CCC(=O)c1ccc(Oc2ccccc2)cc1)Cc1ccccc1` [Example 86, 2-(N-methylbenzyl)aminoethyl-4-phenoxyphenylketone] showed an inhibition at 10 µM [1] of 30%, an inhibition at 30 µM [1] of 70% and an inhibition at 100 µM [1] of 95%. It also gave an inhibition at 10 µM [2] of 0%, an inhibition at 30 µM [2] of 20% and an inhibition at 100 µM [2] of 50%.
In the case of `O=C(CCNCC(O)c1ccccc1)c1ccc(Oc2ccccc2)cc1` (stereo not drawn) [Example 87, 2-(N-2-hydroxy-2-phenylethyl)aminoethyl-4-phenoxyphenylketone], the inhibition at 10 µM [1] is reported as 10%, the inhibition at 30 µM [1] is reported as 10% and the inhibition at 100 µM [1] is reported as 90%. The inhibition at 10 µM [2] was 0%, the inhibition at 30 µM [2] was 0% and the inhibition at 100 µM [2] was 20%.
`O=C(CCN1CCCCC1)c1ccc2c(Cl)cccc2c1` [Example 88, 2-piperidinoethyl-5-chloro-2-naphthylketone] was tested, and the inhibition at 10 µM [1] was 10%, the inhibition at 30 µM [1] was 10% and the inhibition at 100 µM [1] was 100%. The inhibition at 10 µM [2] was 0%, the inhibition at 30 µM [2] was 0% and the inhibition at 100 µM [2] was 20%.
`O=C(CCN(CCO)Cc1ccccc1)c1ccc2c(Cl)cccc2c1` [Example 89, 2-(N-2-hydroxyethylbenzyl)aminoethyl-5-chloro-2-naphthylketone] gave an inhibition at 10 µM [1] of 30%, an inhibition at 30 µM [1] of 80% and an inhibition at 100 µM [1] of 100%. For the same molecule, the inhibition at 10 µM [2] was 0%, the inhibition at 30 µM [2] was 10% and the inhibition at 100 µM [2] was 80%.
With `CCC(CO)(CO)NCCC(=O)c1ccc2c(Cl)cccc2c1` [Example 90, 2-(N-1,1-dihydroxymethylpropyl)aminoethyl-5-chloro-2-naphthylketone] the inhibition at 10 µM [1] was 10%, the inhibition at 30 µM [1] was 20% and the inhibition at 100 µM [1] was 100%. For the same molecule, the inhibition at 10 µM [2] was 0%, the inhibition at 30 µM [2] was 10% and the inhibition at 100 µM [2] was 30%.
`CCCCN(CCO)CCC(=O)c1ccc2c(Cl)cccc2c1` [Example 91, 2-(N-2-hydroxyethylbutyl)aminoethyl-5-chloro-2-naphthylketone] was tested, and the inhibition at 10 µM [1] was 20%, the inhibition at 30 µM [1] was 90% and the inhibition at 100 µM [1] was 100%. It also gave an inhibition at 10 µM [2] of 0%, an inhibition at 30 µM [2] of 10% and an inhibition at 100 µM [2] of 90%.
With `C=CCC(=O)c1ccc2ccccc2c1` [Example 92, Allyl-2-naphthylketone] the inhibition at 10 µM [1] was 0%, the inhibition at 30 µM [1] was 0% and the inhibition at 100 µM [1] was 30%. For the same molecule, the inhibition at 10 µM [2] was 0%, the inhibition at 30 µM [2] was 0% and the inhibition at 100 µM [2] was 0%.
`C=CCC(=O)c1cccc2ccccc12` [Example 93, Allyl-1-naphthylketone] showed an inhibition at 10 µM [1] of 20%, an inhibition at 30 µM [1] of 70% and an inhibition at 100 µM [1] of 90%. It also gave an inhibition at 10 µM [2] of 0%, an inhibition at 30 µM [2] of 0% and an inhibition at 100 µM [2] of 30%.
Work on `CC(C)(C)N(CCC(=O)c1ccccn1)Cc1ccccc1` [Example 94, 2-(N-t-butylbenzyl)aminoethyl-2-pyridylketone] yielded an inhibition at 10 µM [1] of 30%, an inhibition at 30 µM [1] of 90% and an inhibition at 100 µM [1] of 100%. The inhibition at 10 µM [2] was 0%, the inhibition at 30 µM [2] was 0% and the inhibition at 100 µM [2] was 0%.
`O=C(CCN1CCCCC1)c1ccccn1` [Example 95, 2-piperidinoethyl-2-pyridylketone] gave an inhibition at 10 µM [1] of 0%, an inhibition at 30 µM [1] of 10% and an inhibition at 100 µM [1] of 10%. The inhibition at 10 µM [2] was 0%, the inhibition at 30 µM [2] was 0% and the inhibition at 100 µM [2] was 0%.
